Experimental findings from BigSolDB 2.1 are described below.

For the series the following is noted: in n-octanol.

As a reminder, the solubility (mole fraction) is the moles of solute divided by all moles in the saturated solution. Consider `O=C(Cn1cnc2c(sc(=S)n2-c2ccc(Cl)cc2)c1=O)NCC(O)(Cn1cncn1)c1ccc(F)cc1F` (stereo not given), for which the solubility (mole fraction) (293.15 K) was found to be 0.000548; the solubility (mole fraction) (298.15 K) was determined as 0.000617; the solubility (mole fraction) (303.15 K) stood at 0.000699; the solubility (mole fraction) (308.15 K) was 0.000773; the solubility (mole fraction) (313.15 K) was determined as 0.000861.

Take `COc1ccccc1-n1c(=S)sc2c(=O)n(CC(=O)NCC(O)(Cn3cncn3)c3ccc(F)cc3F)cnc21` (stereo not given): the solubility (mole fraction) runs as follows: (293.15 K) 0.00182; (298.15 K) 0.00212; (303.15 K) 0.00253; (308.15 K) 0.00297; (313.15 K) 0.00348.

As to `O=C(Cn1cnc2c(sc(=S)n2-c2ccc(F)cc2)c1=O)NCC(O)(Cn1cncn1)c1ccc(F)cc1F` (stereo not given), the solubility (mole fraction) reads like this: (293.15 K) 0.000335; (298.15 K) 0.000382; (303.15 K) 0.000439; (308.15 K) 0.000495; (313.15 K) 0.000563.

In the case of `Cc1ccc(-n2c(=S)sc3c(=O)n(CC(=O)NCC(O)(Cn4cncn4)c4ccc(F)cc4F)cnc32)cc1` (stereo not given), the solubility (mole fraction) turned out to be 0.000299 (293.15 K); 0.000368 (298.15 K); 0.000444 (303.15 K); 0.000531 (308.15 K); 0.000638 (313.15 K).
